Read-outs that look alike come from different tables or passages of the source.
Biological target: T1, caspase-6 (Homo sapiens, UniProt P55212)
T1 construct: Residues 24-179 and 194-293 from caspase-6 cDNA (Origene) were cloned into pET-24b and pET-23b vectors; 6x histidine tag (C); made in house; host or cells: E. coli BL21 (DE3) pLysS
T1 sequence (P55212 24-179): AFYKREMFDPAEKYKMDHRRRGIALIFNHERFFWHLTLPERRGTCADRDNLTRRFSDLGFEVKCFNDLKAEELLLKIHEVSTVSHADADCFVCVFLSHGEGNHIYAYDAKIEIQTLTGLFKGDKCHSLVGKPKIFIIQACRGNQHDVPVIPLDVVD
T1 sequence (P55212 194-293): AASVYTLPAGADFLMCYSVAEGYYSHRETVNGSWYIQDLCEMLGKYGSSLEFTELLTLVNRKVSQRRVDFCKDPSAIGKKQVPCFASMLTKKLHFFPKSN
Experiment: Caspase-6 enzymatic assay with fluorogenic tetrapeptide substrates
Type: biochemical
Procedure: The in vitro enzymatic caspase assays utilize synthetic tetrapeptide substrates labeled with the fluorophores Rhodamine110 (R110) or 7-amino-4-methylcoumarin (AMC) at the P1 aspartic acid (Asp) residue. All assays were performed in 384-well plates in 12 µL reaction volume consisting of enzyme, substrate and indicated concentration of inhibitor or DMSO in assay buffer (50 mM HEPES [pH 7.0], 25 mM MgSO4, 0.5 mM EGTA, 5 mM Glutathione (GSH), 0.01% Triton X-100 containing 0.1% Bovine Gamma Globulin (BGG)). All inhibitors were serially diluted in 100% DMSO prior to dilution in assay buffer and transfer to assay plate. DMSO was diluted into assay buffer similarly for blank wells (no enzyme or compound) and final DMSO concentration was 1%. The concentration of caspase-6 used in enzymatic reactions typically varied between 1–10 nM depending on substrate used. Unless otherwise indicated, substrate concentration was within 3-fold of the determined Kmapparent (5 µM (Ac-VEID)2R110 [Kmapp = 8 µM]; 5 µM (Ac-DEVD)2R110 [Kmapp = 8 µM]; 25 µM (Ac-IETD)2R110 [Kmapp = 70 µM]; 25 µM (Ac-WEHD)2R110 [Kmapp = 70 µM]; 10µM Ac-VEID-AMC [Kmapp = 16µM]; 5 µM Ac-VEID-R110 [Kmapp = 8 µM]). The concentration of substrate utilized in selectivity assays for each caspase isoform was also held as close to Kmapparent as reasonably achievable (Table S1). Caspases-3 and -7 were expressed and purified at Genentech as the catalytic domain consisting of large p20 and small p10 subunits without prodomain. For all caspase enzymatic assays, the reaction plate was incubated at room temperature for 40 minutes and then read on Envision (Perkin Elmer) fluorescent plate reader at excitation/emission wavelengths of 485/535 nm (R110) or 350/450 nm (AMC). […]
The endpoint fluorescent emission (RFU) in each well was plotted as a function of inhibitor concentration and the 50% inhibition (IC50) values were determined using a nonlinear least squares fit of the data to a four parameter equation using Prism 5.0 software (GraphPad Software, San Diego, CA). […] Ki values for Compound 3 were calculated using this equation: Ki = IC50/(Km/[S] +1). Concentration-response curves for each inhibitor were normalized to zero and 100% based on no enzyme or DMSO control, respectively. For steady-state kinetic analysis, initial reaction velocity (RFU/minute) was plotted against substrate concentration at each inhibitor concentration and the data was fit to a hyperbolic Michaelis-Menten model using Prism 5.0 software. Km (µM) and Vmax (RFU/minute) were calculated by using this equation: v = Vmax • [S]/Km+[S] where v = initial reaction velocity at indicated substrate concentration (S). Vmax values were normalized to zero and 100% based on no enzyme or DMSO control, respectively.
Expression and purification of caspase-6 for enzymatic assays: Human caspase-6 was expressed as the mature enzyme using a split construct. Residues 24-179 and 194-293 from caspase-6 cDNA (Origene) were cloned into pET-24b and pET-23b vectors (Novagen) respectively; the small subunit contained a C-terminal 6x histidine tag. Vectors were cotransfected into the E.coli strain BL21 (DE3) pLysS (Stratagene). Cells were grown from a single colony in 6L of 2xYT supplemented with ampicillin and kanamycin at 37 °C to an OD of ~ 0.5 and were subsequently cooled to 16 °C before overnight induction with 0.2 mM IPTG. Cells were harvested by centrifugation, resuspended in 100 mM NaCl, 100 mM Tris, pH 8.0, and lysed.

Ki ((VEID)2R110 substrate, calculated from IC50): 4 nM
fold weaker with (DEVD)2R110 than with (VEID)2R110 substrate (caspase-6): ~44 fold
IC50 (caspase-6, (DEVD)2R110 substrate, read-out: IC50): 481 nM
IC50 (caspase-6, (IETD)2R110 substrate, read-out: inhibition of (IETD)2R110 cleavage): ~100000 nM
binding efficiency index (BEI; pIC50/molecular weight) (caspase-6, (VEID)2R110): 19.7
IC50 (caspase-6, (WEHD)2R110 substrate, not inhibited up to this concentration, read-out: inhibition of (WEHD)2R110 cleavage): > 100000 nM
IC50 (caspase-6, monovalent VEID-AMC substrate, read-out: IC50): 14000 nM
IC50 (caspase-6 cleavage of (VEID)2R110 substrate, read-out: IC50 (potency)): 11 nM
selectivity for caspase-6 cleavage of (VEID)2R110 compared to other caspase family members tested (versus caspases-3 and -7): near absolute selectivity
Structure (SMILES): COc1ccc(-c2cc(C(=O)N[C@@H](CO)Cc3cccc(C#N)c3)co2)cc1OC [Compound 3]
